Assays:
human LTA4 hydrolase = target: T1, human LTA4 hydrolase (Homo sapiens, UniProt P09960); assay: LTA4H enzyme assay (cleavage of Arg-AMC, fluorescence); assay type: biochemical; details: LTA4H enzyme 1 nM, Arg-AMC substrate 50 μM, room temperature 1 h
T1 sequence (P09960 1-611): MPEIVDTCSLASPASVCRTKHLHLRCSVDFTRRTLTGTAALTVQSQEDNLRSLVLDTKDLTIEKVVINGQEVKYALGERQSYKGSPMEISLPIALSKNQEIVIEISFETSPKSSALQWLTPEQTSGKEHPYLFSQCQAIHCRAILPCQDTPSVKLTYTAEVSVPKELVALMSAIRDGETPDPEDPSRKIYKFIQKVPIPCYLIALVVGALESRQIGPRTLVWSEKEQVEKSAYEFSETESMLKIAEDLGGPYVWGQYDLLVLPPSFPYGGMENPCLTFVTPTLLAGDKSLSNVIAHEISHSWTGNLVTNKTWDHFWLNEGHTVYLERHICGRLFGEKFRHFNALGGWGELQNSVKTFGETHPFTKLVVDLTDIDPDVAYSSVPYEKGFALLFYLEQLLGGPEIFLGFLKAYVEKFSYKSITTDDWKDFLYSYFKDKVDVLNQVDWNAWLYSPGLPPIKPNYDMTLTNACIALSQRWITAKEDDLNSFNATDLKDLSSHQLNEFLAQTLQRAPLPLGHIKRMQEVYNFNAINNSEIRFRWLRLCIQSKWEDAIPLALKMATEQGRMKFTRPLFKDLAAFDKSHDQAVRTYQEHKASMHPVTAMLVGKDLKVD
Procedure: Compounds are assessed for the ability to interact with human LTA4 hydrolase in an enzymatic assay that measures the ability of the enzyme to cleave the peptide bond of arginyl-aminomethylcoumarin (Arg-AMC). LTA4H Enzyme (1 nM final), Arg-AMC substrate (50 μM final), and compound are combined in a reaction buffer (50 mM Tris-HCl (pH 7.5), 100 mM KCl, 0.5% bovine serum albumin) at room temperature for 1 h. The formation of product is assessed by measuring the fluorescence of aminomethylcoumarin product (excitation wavelength 380 nm/emission wavelength 460 nm).

[1] = tested on: LTB4 production in human whole blood; assay: LTB4 production inhibition assay in human whole blood (calcimycin-stimulated); assay type: cell-based; details: heparinized human whole blood, 15 min 37° C., calcimycin 20 μM 30 min, plasma LTB4 by HTRF
Procedure: Compounds of the invention are additionally tested in a human whole blood assay to determine their ability to inhibit the synthesis of LTB4 in a cellular system. Compounds are combined with heparinized human whole blood and incubated for 15 minutes at 37° C. Calcimycin (20 μM final, prepared in phosphate-buffered saline, pH 7.4) is then added and the mixture is incubated for another 30 minutes at 37° C. The samples are centrifuged for 5 min at low speed (1500×g) and the plasma layer is removed. Plasma LTB4 concentrations are then measured using an antibody-based homogenous time-resolved fluorescence method (CisBio, Bedford, Mass.).

With `c1cc(-c2ccc(Oc3ccc(OCC4COCCN4)cc3)nc2)[nH]n1` (racemic) [Example 16, 3-[(4-{[5-(1H-pyrazol-5-yl)pyridin-2-yl]oxy}phenoxy)methyl]morpholine] as the compound, how does the IC50 (human LTA4 hydrolase) read?
Its IC50 is 0.2 nM.

And the IC50 [1]?
The IC50 was 52 nM.

`O=C1CC[C@H](COc2ccc(Oc3ccc(-c4ccn[nH]4)cc3)cc2)N1` [Example 1, (5R)-5-({4-[4-(1H-pyrazol-5-yl)phenoxy]phenoxy}methyl)pyrrolidin-2-one] was tested. Which IC50 (human LTA4 hydrolase) did it give?
Its IC50 is 0.2 nM.

And the IC50 [1]?
Its IC50 is 246 nM.

What does the source list for `O=C1CC[C@@H](COc2ccc(Oc3ccc(-c4ccn[nH]4)cc3)cc2)N1` [Example 2, (5S)-5-({4-[4-(1H-pyrazol-5-yl)phenoxy]phenoxy}methyl)pyrrolidin-2-one]?
IC50 (human LTA4 hydrolase): 0.2 nM; IC50 [1]: 163 nM

With `O=C1CC[C@@H](COc2ccc(Oc3ccc(-c4ccn[nH]4)cn3)cc2)N1` [Example 3, (5S)-5-[(4-{[5-(1H-pyrazol-5-yl)pyridin-2-yl]oxy}phenoxy)methyl]pyrrolidin-2-one] as the compound, how does the IC50 (human LTA4 hydrolase) read?
The IC50 was 0.2 nM.

And the IC50 [1]?
The IC50 was 142 nM.

Which results are given for `c1cc(-c2ccc(Oc3ccc(O[C@@H]4CCOC4)cc3)cc2)[nH]n1` [Example 4, 5-(4-{4-[(3R)-tetrahydrofuran-3-yloxy]phenoxy}phenyl)-1H-pyrazole]?
IC50 (human LTA4 hydrolase): 3.9 nM; IC50 [1]: 1040 nM

What does the source list for `c1cc(-c2ccc(Oc3ccc(OCC4CCCO4)cc3)cc2)[nH]n1` (centres unmarked) [Example 5, 5-{4-[4-(tetrahydrofuran-2-ylmethoxy)phenoxy]phenyl}-1H-pyrazole]?
IC50 (human LTA4 hydrolase): 6.8 nM; IC50 [1]: 1350 nM

With `O=C1CC[C@H](Oc2ccc(Oc3ccc(-c4ccn[nH]4)cc3)cn2)CN1` [Example 6, (5S)-5-({5-[4-(1H-pyrazol-5-yl)phenoxy]pyridin-2-yl}oxy)piperidin-2-one] as the compound, how does the IC50 (human LTA4 hydrolase) read?
Its IC50 is 3.5 nM.

And the IC50 [1]?
Its IC50 is 1080 nM.

How did the IC50 (human LTA4 hydrolase) turn out when `CN1CC(COc2ccc(Oc3ccc(-c4ccn[nH]4)cc3)cc2)CC1=O` (centres unmarked) [Example 7, 1-methyl-4-({4-[4-(1H-pyrazol-5-yl)phenoxy]phenoxy}methyl)pyrrolidin-2-one] was run?
The IC50 was 0.5 nM.

And the IC50 [1]?
Its IC50 is 280 nM.

Which IC50 (human LTA4 hydrolase) does the source give for `O=C1CCC(Oc2ccc(Oc3ccc(-c4ccn[nH]4)cc3)cc2)CN1` (centres unmarked) [Example 8, 5-{4-[4-(1H-pyrazol-5-yl)phenoxy]phenoxy}piperidin-2-one] here?
The IC50 was 0.5 nM.

What about the IC50 [1] of the same compound?
The IC50 was 222 nM.

Which results are given for `O=C1NCC[C@@H]1Oc1ccc(Oc2ccc(-c3ccn[nH]3)cc2)cc1` [Example 9, (3S)-3-{4-[4-(1H-pyrazol-5-yl)phenoxy]phenoxy}pyrrolidin-2-one]?
IC50 (human LTA4 hydrolase): 76.7 nM; IC50 [1]: ≥ 5000 nM

Which results are given for `O=C1NC(COc2ccc(Oc3ccc(-c4ccn[nH]4)cc3)cc2)CO1` (centres unmarked) [Example 10, 4-({4-[4-(1H-pyrazol-5-yl)phenoxy]phenoxy}methyl)-1,3-oxazolidin-2-one]?
IC50 (human LTA4 hydrolase): 0.2 nM; IC50 [1]: 126 nM

For `O=C1NCC(COc2ccc(Oc3ccc(-c4ccn[nH]4)cc3)cc2)O1` (centres unmarked) [Example 11, 5-({4-[4-(1H-pyrazol-5-yl)phenoxy]phenoxy}methyl)-1,3-oxazolidin-2-one], which IC50 (human LTA4 hydrolase) is on record?
The IC50 was 1.3 nM.

And the IC50 [1]?
Its IC50 is 573 nM.

Which IC50 (human LTA4 hydrolase) does the source give for `O=C1N[C@H](COc2ccc(Oc3ccc(-c4ccn[nH]4)cc3)cc2)CO1` [Example 12, (4R)-4-({4-[4-(1H-pyrazol-5-yl)phenoxy]phenoxy}methyl)-1,3-oxazolidin-2-one] here?
Its IC50 is 0.1 nM.

And the IC50 [1]?
The IC50 was 104 nM.

Which results are given for `O=C1CC[C@H](Oc2ccc(Oc3ccc(-c4cc[nH]n4)cc3)cc2)CN1` [Example 13, (5S)-5-{4-[4-(1H-pyrazol-3-yl)phenoxy]phenoxy}piperidin-2-one]?
IC50 (human LTA4 hydrolase): 0.5 nM; IC50 [1]: 214 nM

`O=C1CC[C@@H](Oc2ccc(Oc3ccc(-c4cc[nH]n4)cc3)cc2)CN1` [Example 14, (5R)-5-{4-[4-(1H-pyrazol-3-yl)phenoxy]phenoxy}piperidin-2-one] was tested. Which IC50 (human LTA4 hydrolase) did it give?
Its IC50 is 0.3 nM.

And the IC50 [1]?
The IC50 was 178 nM.

Which results are given for `O=C1N[C@@H](COc2ccc(Oc3ccc(-c4ccn[nH]4)cc3)cc2)CO1` [Example 15, (4S)-4-({4-[4-(1H-pyrazol-5-yl)phenoxy]phenoxy}methyl)-1,3-oxazolidin-2-one]?
IC50 (human LTA4 hydrolase): 0.3 nM; IC50 [1]: 150 nM

How did the IC50 (human LTA4 hydrolase) turn out when `O=C1CC[C@@H](Oc2ccc(Oc3ccc(-c4ccn[nH]4)cn3)cc2)CN1` [Example 17, (5R)-5-(4-{[5-(1H-pyrazol-5-yl)pyridin-2-yl]oxy}phenoxy)piperidin-2-one] was run?
Its IC50 is 1.5 nM.

What about the IC50 [1] of the same compound?
Its IC50 is 425 nM.

`O=C1CC[C@@H](Oc2ccc(Cc3ccc(-c4ccn[nH]4)cc3)cc2)CN1` [Example 18, (5R)-5-{4-[4-(1H-pyrazol-5-yl)benzyl]phenoxy}piperidin-2-one] was tested. Which IC50 (human LTA4 hydrolase) did it give?
The IC50 was 0.8 nM.

And the IC50 [1]?
The IC50 was 581 nM.

`O=C1CC[C@@H](Oc2ccc(Oc3ccc(-c4ccn[nH]4)cc3)cn2)CN1` [Example 19, (5R)-5-({5-[4-(1H-pyrazol-5-yl)phenoxy]pyridin-2-yl}oxy)piperidin-2-one] was tested. Which IC50 (human LTA4 hydrolase) did it give?
Its IC50 is 1.9 nM.

And the IC50 [1]?
The IC50 was 554 nM.

For `O=C1N[C@@H](COc2ccc(Cc3ccc(-c4ccn[nH]4)cc3)cc2)CO1` [Example 20, (4S)-4-({4-[4-(1H-pyrazol-5-yl)benzyl]phenoxy}methyl)-1,3-oxazolidin-2-one], which IC50 (human LTA4 hydrolase) is on record?
The IC50 was 0.6 nM.

And the IC50 [1]?
The IC50 was 229 nM.

How did the IC50 (human LTA4 hydrolase) turn out when `O=C1CCCN1CCOc1ccc(Oc2ccc(-c3ccn[nH]3)cc2)cc1` [Example 21, 1-(2-{4-[4-(lH-pyrazol-5-yl)phenoxy]phenoxy}ethyl)pyrrolidin-2-one] was run?
The IC50 was 0.7 nM.

What about the IC50 [1] of the same compound?
The IC50 was 813 nM.

`c1cc(-c2ccc(Oc3ccc(OCCN4CCOCC4)cc3)cc2)[nH]n1` [Example 22, 4-(2-{4-[4-(1H-pyrazol-5-yl)phenoxy]phenoxy}ethyl)morpholine] was tested. Which IC50 (human LTA4 hydrolase) did it give?
The IC50 was 0.2 nM.

What about the IC50 [1] of the same compound?
The IC50 was 179 nM.

Which IC50 (human LTA4 hydrolase) does the source give for `O=C1CCCN1CCCOc1ccc(Oc2ccc(-c3ccn[nH]3)cc2)cc1` [Example 23, 1-(3-{4-[4-(1H-pyrazol-5-yl)phenoxy]phenoxy}propyl)pyrrolidin-2-one] here?
Its IC50 is 0.7 nM.

What about the IC50 [1] of the same compound?
Its IC50 is 529 nM.

Which results are given for `O=C1N[C@H](COc2ccc(Oc3ccc(-c4ccn[nH]4)cn3)cc2)CO1` [Example 24, (4R)-4-[(4-{[5-(1H-pyrazol-5-yl)pyridin-2-yl]oxy}phenoxy)methyl]-1,3-oxazolidin-2-one]?
IC50 (human LTA4 hydrolase): 0.2 nM; IC50 [1]: 123 nM

With `c1cc(-c2ccc(Cc3ccc(OCCN4CCOCC4)cc3)cc2)[nH]n1` [Example 25, 4-(2-{4-[4-(1H-pyrazol-5-yl)benzyl]phenoxy}ethyl)morpholine] as the compound, how does the IC50 (human LTA4 hydrolase) read?
Its IC50 is 0.5 nM.

What about the IC50 [1] of the same compound?
Its IC50 is 123 nM.

How did the IC50 (human LTA4 hydrolase) turn out when `Cn1ccnc1COc1ccc(Oc2ccc(-c3ccn[nH]3)cc2)cc1` [Example 26, 5-(4-{4-[(1-methyl-1H-imidazol-2-yl)methoxy]phenoxy}phenyl)-1H-pyrazole] was run?
Its IC50 is 1.2 nM.

And the IC50 [1]?
Its IC50 is 2110 nM.

Which results are given for `c1cc(-c2ccc(Oc3ccc(OCc4cnc[nH]4)cc3)cc2)[nH]n1` [Example 27, 5-{4-[4-(1H-imidazol-5-ylmethoxy)phenoxy]phenyl}-1H-pyrazole]?
IC50 (human LTA4 hydrolase): 2.2 nM; IC50 [1]: 1840 nM

What does the source list for `c1ccc2[nH]c(COc3ccc(Oc4ccc(-c5ccn[nH]5)cc4)cc3)nc2c1` [Example 28, 2-({4-[4-(1H-pyrazol-5-yl)phenoxy]phenoxy}methyl)-1H-benzimidazole]?
IC50 (human LTA4 hydrolase): 1.4 nM; IC50 [1]: ≥ 5000 nM

Which IC50 (human LTA4 hydrolase) does the source give for `c1cncc(CCOc2ccc(Oc3ccc(-c4ccn[nH]4)cc3)cc2)c1` [Example 29, 3-(2-{4-[4-(1H-pyrazol-5-yl)phenoxy]phenoxy}ethyl)pyridine] here?
The IC50 was 4.9 nM.

What about the IC50 [1] of the same compound?
Its IC50 is 2280 nM.

Which results are given for `c1coc(COc2ccc(Oc3ccc(-c4ccn[nH]4)cc3)cc2)c1` [Example 30, 5-{4-[4-(2-furylmethoxy)phenoxy]phenyl}-1H-pyrazole]?
IC50 (human LTA4 hydrolase): 65.6 nM; IC50 [1]: ≥ 5000 nM

`CC(Cc1ccccc1)Oc1ccc(Oc2ccc(-c3ccn[nH]3)cc2)cc1` (centres unmarked) [Example 31, 5-{4-[4-(1-methyl-2-phenylethoxy)phenoxy]phenyl}-1H-pyrazole] was tested. Which IC50 (human LTA4 hydrolase) did it give?
Its IC50 is 900 nM.

And the IC50 [1]?
The IC50 was no less than 5000 nM.

For `CC(COc1ccc(Oc2ccc(-c3ccn[nH]3)cc2)cc1)c1ccccc1` (centres unmarked) [Example 32, 5-{4-[4-(2-phenylpropoxy)phenoxy]phenyl}-1H-pyrazole], which IC50 (human LTA4 hydrolase) is on record?
Its IC50 is 360 nM.

And the IC50 [1]?
The IC50 was no less than 5000 nM.

Which results are given for `c1ccc(CCOc2ccc(Oc3ccc(-c4ccn[nH]4)cc3)cc2)nc1` [Example 33, 2-(2-{4-[4-(1H-pyrazol-5-yl)phenoxy]phenoxy}ethyl)pyridine]?
IC50 (human LTA4 hydrolase): 5.2 nM; IC50 [1]: 3360 nM

How did the IC50 (human LTA4 hydrolase) turn out when `c1cncc(COc2ccc(Oc3ccc(-c4ccn[nH]4)cc3)cc2)c1` [Example 34, 3-({4-[4-(1H-pyrazol-5-yl)phenoxy]phenoxy}methyl)pyridine] was run?
Its IC50 is 1.5 nM.

And the IC50 [1]?
Its IC50 is 2540 nM.

Reference: patent US9139567B2, “Arylpyrazole ethers as inhibitors of leukotriene A4 hydrolase” (Boehringer Ingelheim International GmbH, priority 2011, dated 2015)
